Square brackets hold non-standard residues; d marks the D form. Peptide text beside a SMILES is read from it. Sar = CNCC(=O)O
How the values were obtained:
[1] = other pharmacological studies (cardiovascular, CNS, anti-inflammatory, diuretic); assay type: in vivo; conditions: up to a dose of 10 mg/kg
[2] = system: sensitised guinea pig ileum; test: antigen (egg albumin) induced contraction of sensitised guinea pig ileum (Schultz-Dale phenomenon)
[3] = system: Sensitised mast cells (Immunological: Egg albumin); test: mast cell degranulation by egg albumin in sensitised mast cells; assay type: in vivo, rats; conditions: dose 50.0 pro (10.0 x 5 d) mg/kg x days
Egg-albumin = test: aerosol test, egg-albumin challenge in sensitised guinea pigs; assay type: in vivo; conditions: dose 50 mg/kg (ip)
[4] = system: Normal mast cells (Noninnunological: Comp. 48/80); test: mast cell degranulation by comp 48/80 in normal mast cells; assay type: in vivo, rats; conditions: dose 50.0 pro (10.0 x 5 d) mg/kg x days
[5] = system: passive cutaneous anaphylaxis (PCA); test: passive cutaneous anaphylaxis (PCA) test in rats; assay type: in vivo

Structure (SMILES)	cardiovascular, Central Nervous System (CNS), anti-inflammatory, diuretic activities [1]	% Protection to ileum contraction induced by egg albumin ([2]; concentration 1.0 (unit not given))	% Protection to ileum contraction induced by egg albumin ([2]; concentration 2.0 (unit not given)) [%]	% Protection to ileum contraction induced by egg albumin ([2]; concentration 3.0 (unit not given)) [%]	% Protection [3] [%]	% Protection Egg-albumin (Egg-albumin) [%]	% Protection [4] [%]	anti PCA activity ([5]; rat, 50 mg/kg by nasal route) [%]	% Anti-PCA activity ([5]; rats, dose 50.0 mg/kg (IP)) [%]
C[C@H](N)C(=O)NCC(=O)NCC(=O)N[C@@H](CC(=O)O)C(=O)N(C)CC(=O)N[C@@H](CCCCN)C(=O)O [96/199, L-alanyl-glycyl-glycyl-L-aspartyl-sar-L-1ys] (H-AGGD[Sar]K-OH)	No significant effects								
O=C([O-])c1cc(=O)c2c(OCC(O)COc3cccc4oc(C(=O)[O-])cc(=O)c34)cccc2o1.[Na+].[Na+] [DSCG, disodium cromoglycate]		No block	18	59	71	64	72	81	77

Source: patent EP1348714B1, “Polypeptide useful as anti-allergic/antiasthmatic, methods for the preparation thereof and pharmaceutical compositions containing such polypeptide and their use” (COUNCIL OF SCIENTIFIC AND INDUSTRIAL RESEARCH, priority 2002, dated 2003)
